Measurements as given in ChEMBL document CHEMBL2375211, “2-methoxyjuglone induces apoptosis in HepG2 human hepatocellular carcinoma cells and exhibits in vivo antitumor activity in a H22 mouse hepatocellular carcinoma model” (J Nat Prod, 2013).

What was measured:
[1] = tested on: Mus musculus; assay: Toxicity in Kunming mouse allografted with mouse H22 cells assessed as decrease in body weight at 20 mg/kg/day, ip measured every day for 8 days; type: organism-based; set-up: route intraperitoneal; details: in vivo, 192 h
[2] = tested on: H22; assay: Antitumor activity against mouse H22 cells allografted in Kunming mouse assessed as decrease in weight of tumor mass at 20 mg/kg/day, ip administered 8 days measured after 10 days relative to control; type: functional; set-up: scale not given: the % may be the effect or the level left; details: route intraperitoneal

## O=c1[nH]cc(F)c(=O)[nH]1 [FLUOROURACIL]
[1]
  Activity: Toxic
[2]
  Activity: 81%
